Test results reported in publication PMC12040169 (PLOS Biology, 2025).

Experiment: in vitro
Details: human, hela cells, % viability

Structure (SMILES)	viability at 28.5 h, 10 µM [%]
CCN(CC)CCNC(=O)c1ccc(NS(=O)(=O)c2cc(C(=O)O)ccc2OC)cc1 [CBK296962]	103
O=C(CSc1n[nH]c(=O)n1Cc1ccccc1)NCc1ccc(-c2ccc(Cl)cc2)o1 [CBK296963]	102
OCCN1CCN(C(c2cccs2)c2ccc3cccnc3c2O)CC1 (stereo not drawn) [CBK296964]	76.7
CC(Sc1nnc(-c2ccc(Cl)cc2)n1CC(=O)O)C(=O)Nc1ccnn1C(C)C (stereo not drawn) [CBK296970]	96.9
O=C(O)C1CCN(C(=O)CSc2nnc(-c3ccccc3F)n2C2CCCC2)CC1 [CBK296971]	115
Cc1nn(CCC#N)c2nc(-c3ccc(F)cc3)cc(C(=O)O)c12 [CBK296974]	94.7
CCOC(=O)N1CCN(S(=O)(=O)c2cc(C(=O)O)c(Cl)cc2Cl)CC1 [CBK296975]	96.2
CCCn1c(SCC(=O)NCCN2C(=O)CSC2=O)n[nH]c1=O [CBK296976]	89.2
Cc1cnc(C(=O)OCc2cc(=O)n3ccsc3n2)cn1 [CBK296978]	95.5
CSCCC(C(=O)O)N1C(=O)C(=Cc2ccc(-c3cc(Cl)cc(Cl)c3)o2)SC1=S (stereo not drawn) [CBK296984]	87.3
COCCOC(=O)C1=C(C)N(c2ccc(C(=O)O)cc2)C(=O)NC1c1ccccc1Cl (stereo not drawn) [CBK296986]	97
Cc1ccc(Nc2nc(Cn3nc(C(=O)O)c4ccccc4c3=O)cs2)cc1 [CBK296989]	86.7
Cc1occc1-c1nnc(SC2CCCCN(C(=O)c3ccc(Cl)cc3)C2=O)n1C (stereo not drawn) [CBK296990]	97.9
O=C(O)CCNC(=O)c1ccc(NS(=O)(=O)c2ccc(C3CCCCC3)cc2)cc1 [CBK296991]	96.1
CCOc1ccc(Oc2ccc(C(F)(F)F)cc2NC(=O)CCCC(=O)O)cc1 [CBK296993]	90.7
O=C(Nc1ccc(-c2ccccc2)cc1)c1cccc(S(=O)(=O)NCC2CCCO2)c1 (stereo not drawn) [CBK296994]	95.7
Cc1cccn2cc(CSc3nnc4[nH]c5ccccc5n34)nc12 [CBK296996]	94.1

Structure (SMILES)	viability at 28.5 h, 10 µM [%]
Cc1cc(C(=O)CSc2nnnn2-c2ccc(O)cc2)c(C)n1Cc1ccc(F)cc1 [CBK297081]	98.8
Cc1nc2ccccc2n1CCNC(=O)c1ccccc1SCc1ccc(C#N)cc1 [CBK297082]	106
COc1cc(NC(=O)C2CCN(S(=O)(=O)c3cccs3)CC2)c(Cl)cc1C(=O)O [CBK297085]	99.7
CCn1c(SCc2cc(Cl)c3c(c2)OCCO3)nnc1-c1ccc(OC)cc1 [CBK297086]	88.9
COc1ccc(CN(C)C(=O)CCc2c(C)nc3c(cnn3C(C)C)c2C)cc1 [CBK297087]	80.6
COc1ccc(C(=O)CSc2nnc(-c3ccccc3)c3ccccc23)cc1OC [CBK297088]	93.3
CC(C)(C)c1ccc(S(=O)(=O)N2CCN(CCC(=O)O)CC2)cc1 [CBK297089]	103
O=C(Nc1cccc(-c2nnc3n2CCCCC3)c1)[C@@H]1CCCN1C(=O)c1cccs1 [CBK297090]	109
CN(c1ccccc1)S(=O)(=O)c1cccc(NC(=O)c2ccc(=O)[nH]n2)c1 [CBK297091]	96.3
Cc1nnc(Sc2nc(CN3CCOCC3)nc3scc(-c4cccs4)c23)n1C [CBK297092]	103
COc1cc(C)c(CN2CCN(S(=O)(=O)c3cc(C(=O)O)cs3)CC2)cc1OC [CBK297093]	97.2
CC1CCN(S(=O)(=O)c2ccc(C(=O)N3CCCCC3C(=O)O)cc2)CC1 (stereo not drawn) [CBK297094]	89.8
O=C(O)c1ccc(CNC(=O)c2ccc(Cl)c(S(=O)(=O)N3CCCC3)c2)cc1 [CBK297096]	95.7
Cc1ccc(-c2csc3ncnc(NCCCc4n[nH]c(N)c4C#N)c23)cc1 [CBK297100]	98.1
CSCCC(NC(=O)c1ccc(S(=O)(=O)N2CC(C)OC(C)C2)cc1)C(=O)O (stereo not drawn) [CBK297101]	104
CC(Sc1ncc(-c2ccc(F)cc2)n1Cc1ccccc1)C(=O)NC1CC1 (stereo not drawn) [CBK297105]	108
